{"source": "patent US11572373B2", "about": "“Maytansinoid-based drug delivery systems” (LADRX CORPORATION, priority 2017, dated 2023)", "key": {"[1]": {"test": "Stability and release kinetics of maytansinoid-HSA conjugates in buffer solution at pH 4.0 and pH 7.4", "format": "physicochemical", "conditions": "maytansinoid-HSA conjugate, PBS pH 7.4, 37° C.", "procedure": "For preparing HSA conjugates of albumin-binding maytansinoids, HSA (200 μM: 361.8 μL, 1078 μM free Cys34; 100 μM: 180.9 μL, 1078 μM free Cys34) was diluted with PBS buffer (4 mM sodium phosphate, 150 mM NaCl, pH 7.4) (200 μM: 678.2 μL; 100 μM: 859.1 μL) and DMSO (200 μM: 130.0 μL; 100 μM: 195.0 μL) and incubated in a heating block at 37° C. for 30 minutes. The albumin-binding maytansinoid was added as a 2 mM stock solution in DMSO (200 μM: 130.0 μL; 100 μM: 65.0 μL) to the preincubated HSA sample to produce a 200 μM or 100 μM solution of maytansinoid-prodrug and 300 μM or 150 μM of free Cys34. The mixture having a pH of 7.4 was allowed to react for 10 min at 37° C. and was then analyzed hourly for 24 hours by RP-HPLC (Phenomenex Aeris WP XB-C18, 3.6 μm, 250×4.6 mm).\nFor studying the release kinetics at pH 4.0 the mixture was acidified with a mixture of 50 mM sodium acetate buffer pH 3.0 (200 μM: 119.3 μL; 100 μM: 125.2 μL) and 1 M HCl (200 μM: 12.7 μL; 100 μM: 6.8 μL) to reach pH 4.0. The mixture was subsequently analyzed hourly for 24 hours by RP-HPLC (Phenomenex Aeris WP XB-C18, 3.6 μm, 250×4.6 mm).\nThe following RP-HPLC conditions were used: Phenomenex Aeris WP XB-C18 3.6 μm, 250×4.6 mm; eluent A (100% 20 mM Tris buffer pH 8.0) and eluent B (90:10, MeCN: water) eluting with a gradient of eluent B (25% 0-0.5 min, 25-35% 0.5-2.5 min, 35-85% 2.5-16 min, 85-95% 16-17 min, 95% 17-20 min, 95-25% 20-25 min, 25% 25-30 min, flow rate 1.0 mL/min). Column oven temperature 37° C.; autosampler temperature 37° C.; 20 μL of injection volume.\nTo quantify the percentage of free drug released, standard curves of the free maytansinoids were prepared at different concentrations (200 μM, 100 μM, 50 μM, 25 μM and 12.5 μM). The area under the curve (AUC) was determined at 250 nm."}, "albumin": {"target": "T1, albumin (Homo sapiens, UniProt P02768)", "T1 construct": "tissue Zen-Bio; host or cells: pooled human whole blood (K2EDTA, 36 donors) and plasma prepared from it", "T1 sequence (P02768 25-609)": "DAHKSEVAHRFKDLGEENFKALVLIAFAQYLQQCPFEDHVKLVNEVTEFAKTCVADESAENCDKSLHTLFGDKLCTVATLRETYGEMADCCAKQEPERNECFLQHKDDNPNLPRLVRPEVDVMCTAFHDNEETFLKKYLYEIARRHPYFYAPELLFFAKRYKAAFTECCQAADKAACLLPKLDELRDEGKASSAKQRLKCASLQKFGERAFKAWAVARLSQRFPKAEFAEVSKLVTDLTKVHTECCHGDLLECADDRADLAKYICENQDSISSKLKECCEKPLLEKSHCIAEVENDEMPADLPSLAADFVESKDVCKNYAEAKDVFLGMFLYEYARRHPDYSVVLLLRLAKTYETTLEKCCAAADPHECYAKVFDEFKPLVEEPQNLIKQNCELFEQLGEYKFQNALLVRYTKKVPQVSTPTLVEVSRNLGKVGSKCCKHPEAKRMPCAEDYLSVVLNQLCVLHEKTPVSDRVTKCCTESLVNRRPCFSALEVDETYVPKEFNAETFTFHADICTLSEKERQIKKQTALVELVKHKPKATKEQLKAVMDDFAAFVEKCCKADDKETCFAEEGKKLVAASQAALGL", "test": "in vitro", "format": "in vitro ADME", "conditions": "37° C., 12.0 μM, read-out: % bound (converted)", "procedure": "To study the binding kinetics of the albumin-binding maytansinoids in pooled human plasma and pooled human whole blood, the compounds were incubated together with pooled human plasma at 37° C. and samples were taken at specified time points. Remaining albumin-binding maytansinoids were quantitated by HPLC.\nTo study the binding kinetics in human whole blood, the blood (K2EDTA, 36 donors, Zen-Bio; 900 μL) was preincubated at 37° C. for 30 min in a heating block. To study the binding kinetics in pooled human plasma, the pooled whole blood was centrifuged (10 min, 1811 g), the supernatant plasma was collected and then preincubated at 37° C. for 30 min.\nThe albumin-binding maytansinoid was added to the preincubated whole blood/plasma sample as a 10-fold dilution in PBS of a 1.2 mM stock solution in 2.5% propylene glycol in 10 mM sodium phosphate buffer and 1.48 mM citrate (100 μL) to produce a 12.0 μM solution of the respective albumin-binding maytansinoid. Samples (190 μL) were taken after 15 s, 2 min, 4 min, 8 min and 15 min. The samples were directly added to 760 μL MeCN containing maytansine (5 μg/mL) as an internal standard and vortexed for 1 min. After centrifugation (1 min at 12,044 g) the supernatant (850 μL) was concentrated under high vacuum. The residue was taken up in DMSO/water (1:1 v/v; 95 μL) and then analyzed by RP-HPLC. Percentage of binding was determined by comparison of the area under the curve (AUC) at 220 nm of the albumin-binding maytansinoid relative to a control sample (100% value) in PBS buffer. All experiments were performed in triplicates.\nHPLC method: Phenomenex Kinetex Polar C18, 2.6 μm, 100 Å, 150×4.6 mm; eluent A (95:5 5 mM ammonium acetate: MeCN) and eluent B (5:95 5 mM ammonium acetate: MeCN) eluting with a gradient of eluent B (30% 0-0.5 min, 30-95% 0.5-9.0 min, 95% 11.0 min, 95-30% 11.0-14.5 min, 30% 15.0 min, flow rate=1.0 mL/min). Column oven temperature ambient temperature; autosampler temperature 4° C.; 50 μL of injection volume."}}, "note": "Where two headings read alike, the source gives them in different places. Marks after values point to notes of the source that are not given here."}
{"smiles": "COc1cc2cc(c1Cl)N(C)C(=O)C[C@H](OC(=O)COc1cccc(/C(C)=N/NC(=O)c3ccc(NC(=O)CCCCCN4C(=O)C=CC4=O)cc3S(=O)(=O)O)c1)[C@]1(C)O[C@H]1[C@H](C)[C@@H]1C[C@@](O)(NC(=O)O1)[C@H](OC)/C=C/C=C(\\C)C2", "note": "[Compound 31]", "values": [{"measurement": "free maytansinoid after 24 h at pH 7.4", "setting": "[1]; measured at 100 μM", "value": 3.7, "unit": "%**"}, {"measurement": "free maytansinoid after 24 h at pH 7.4", "setting": "[1]; measured at 200 μM", "value": 4.0, "unit": "%*"}, {"measurement": "fraction unbound", "setting": "albumin; blood, pooled human whole blood, 15 s", "value": 0.008}, {"measurement": "fraction unbound", "setting": "albumin; blood, pooled human whole blood, 8 min", "value": 0.007}, {"measurement": "fraction unbound", "setting": "albumin; plasma, pooled human plasma, 15 s", "value": 0.08}, {"measurement": "fraction unbound", "setting": "albumin; plasma, pooled human plasma, 8 min", "value": 0.014}]}
